Reference: patent US9567347B2, “Use of small molecule inhibitors targeting the interaction between RAC GTPase and p67(phox)” (CHILDREN'S HOSPITAL MEDICAL CENTER, priority 2012, dated 2017)

Key:
[1] = tested on: PMA-induced ROS production in human neutrophils; experiment: luminol chemiluminescence assay of PMA induced ROS production; assay type: cell-based
Method: (§1) Human neutrophils (2×10^5) were stimulated in HBSS supplemented with 0.1% BSA, 1 mM Ca2+, 1 mM Mg2+ and with fMLP (10 μM), PMA (300 nM) or glucose oxidase (200 mU/ml) for 30 min in the presence of 10 μM [8-amino-5-chloro-7-phenylpyrido[3,4-d]pyridazine-1,4(2H,3H)dione] (L012).
(§2) Chemiluminescence was measured using GloMax®-96 Microplate Luminometer (Promega) (Tarpey et al., (2004) Am J Physiol Regul Integr Comp Physiol 286: R431-R444, hereby incorporated by reference in its entirety). The generation of […] by the xanthine/xanthine oxidase was performed in PBS supplemented with xanthine oxidase (0.004 U), HRP (0.005 U·mL^−1) and L012, following the protocol described in Wind et al., (2010) Br J Pharmacol. 161, 885-898, hereby incorporated by reference in its entirety. The reaction was started by the addition of xanthine (0.5 mM).

[2] = target: T1, p67R38Q (Homo sapiens, UniProt P19878, R38Q); experiment: microscale thermophoresis binding to p67phox R38Q mutant; settings: residue critical for Rac1-GTP binding
T1 construct: using the pET30-HIS p67(1-212) plasmid; His; made in house; host or cells: E. coli BL21(DE3)
T1 sequence (P19878 1-212 R38Q): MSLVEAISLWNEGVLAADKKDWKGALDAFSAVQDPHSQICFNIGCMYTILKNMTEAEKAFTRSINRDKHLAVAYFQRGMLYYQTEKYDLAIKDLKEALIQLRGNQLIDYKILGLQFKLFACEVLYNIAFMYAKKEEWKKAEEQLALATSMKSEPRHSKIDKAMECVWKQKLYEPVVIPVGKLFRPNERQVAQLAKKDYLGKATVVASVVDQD
Method: The p67^phox protein was expressed in BL21(DE3) bacteria (Stratagene) using the pET30-HIS p67(1-212) plasmid. Protein was purified using the QIAexpress Ni-NTA kit (Qiagen) or the GST Bind Resin Chromatography Kit (Novagen) for RacV12 and RacWT proteins. Mutagenesis was carried out using the Quick Change Lightening Site Directed Mutagenesis Kit (Stratagene).
Proteins were labeled for microscale thermophoresis using the Monolith NT Protein Labeling Kit Red (Nano Temper Technologies) as recommended by the manufacturer. Binding reactions were carried out using the Monolith NT. 115 (Nano Temper Technologies). Binding data was analyzed using Graphpad Prizm to estimate Kd values. The arbitrary fluorescence value from the thermophoresis plots for the smallest compound titration was subtracted from every other data point (Delta depletion) prior to normalization to a Vmax of 100. In thermophoresis plots where there was no binding, a curve could not be fit and therefore no Vmax could be assigned. In these instances the highest delta depletion value was set to 100 and all data were normalized accordingly.
Next, to perform a competition binding, p67^phox protein was first incubated with either 5 μM Phox-I1 or an equal volume of vehicle control for 15 min prior to titration of purified Rac1V12 protein. […]

[3] = tested on: glucose oxidase-produced ROS; experiment: luminol chemiluminescence assay of glucose oxidase-generated ROS; assay type: cell-based, human
Method: as §1, §2

[4] = target: T2, NOX4 (Homo sapiens, UniProt Q9NPH5); experiment: NOX4 mediated ROS production, luminol chemiluminescence with HRP; assay type: cell-based, mouse; settings: 10 μM, 30 min
T2 construct: expressed in transfected cells; host or cells: primary mouse neutrophils (C57Bl/6 bone marrow), Amaxa nucleofection
T2 sequence (Q9NPH5 1-578): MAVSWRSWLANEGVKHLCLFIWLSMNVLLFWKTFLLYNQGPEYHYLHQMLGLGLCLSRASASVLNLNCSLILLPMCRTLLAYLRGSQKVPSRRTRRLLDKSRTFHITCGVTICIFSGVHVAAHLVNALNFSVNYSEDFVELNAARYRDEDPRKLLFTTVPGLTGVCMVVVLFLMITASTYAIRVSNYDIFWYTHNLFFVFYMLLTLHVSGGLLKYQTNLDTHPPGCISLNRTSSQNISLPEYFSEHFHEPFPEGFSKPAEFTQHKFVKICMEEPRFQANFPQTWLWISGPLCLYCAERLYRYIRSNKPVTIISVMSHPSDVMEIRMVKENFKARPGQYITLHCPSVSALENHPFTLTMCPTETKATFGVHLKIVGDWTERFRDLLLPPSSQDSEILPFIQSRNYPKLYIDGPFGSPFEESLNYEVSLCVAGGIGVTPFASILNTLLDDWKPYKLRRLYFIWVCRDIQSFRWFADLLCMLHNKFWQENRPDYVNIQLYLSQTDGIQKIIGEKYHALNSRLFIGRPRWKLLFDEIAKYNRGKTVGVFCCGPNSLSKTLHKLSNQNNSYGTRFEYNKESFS
T2 sequence (Q61462 1-192 partner): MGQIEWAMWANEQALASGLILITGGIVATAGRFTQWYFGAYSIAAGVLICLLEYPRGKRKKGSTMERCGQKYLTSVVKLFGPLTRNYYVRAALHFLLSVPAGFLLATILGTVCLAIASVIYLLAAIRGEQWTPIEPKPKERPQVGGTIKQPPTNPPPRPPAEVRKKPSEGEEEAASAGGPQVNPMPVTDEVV
Method: Primary mouse neutrophils were suspended in 100 μl NucleofectorR solution with 10 μg plasmid pCDNA3-NOX4 encoding NOX4 or mock vector. Cells were transfected using a Cell Line V NucleofactorTMR kit (Amaxa Biosystem, Amaxa Inc.) and the NucleofectorTM program Y-001. Cells were recovered at 37° C. for 2 hours and subjected to the luminol chemiluminescence assay using 10 μM L012 and HRP (0.005 U·mL^−1) to record ROS produced by NOX4 expression.
Phox-I1 was then applied to primary murine neutrophils expressing the constitutively active NOX4. […] To further rule out that Phox-I1 and Phox-I2 may simply act as scavengers of ROS, dHL-60 cells were pre-stimulated with fMLP for 30 min prior to treatment with Phox-I1 or Phox-I2.

COc1ccc2c(c1)C1C=C(c3ccccc3)NN1C(c1cccc([N+](=O)[O-])c1)O2 (stereo not shown) [Phox-I1]
effect on PMA-induced ROS production [1]: did not affect
binding to p67^phox R38 mutant [2]: disrupted the binding ability
effect on glucose oxidase-produced ROS [3]: did not affect
NOX4 ROS production [4]: unresponsive
